Numbers after ± are expanded uncertainties.
Assay: mn = molality of the nth substance listed, in mol/kg
Conditions: 101 kPa, Liquid, Alternating current cell with electrodes

CCCCCCCC[N+](C)(C)CCCCCC[N+](C)(C)CCCCCCCC.[Br-].[Br-] + O
electrical conductivity (288.15 K, m1 = 0.00378): 0.05571 ± 0.00034 S/m
electrical conductivity (288.15 K, m1 = 0.00747): 0.1028 ± 0.00048 S/m
electrical conductivity (288.15 K, m1 = 0.01106): 0.1443 ± 0.00062 S/m
electrical conductivity (288.15 K, m1 = 0.01457): 0.1827 ± 0.00076 S/m
electrical conductivity (288.15 K, m1 = 0.01799): 0.2183 ± 0.0009 S/m
electrical conductivity (288.15 K, m1 = 0.02133): 0.252 ± 0.001 S/m
electrical conductivity (288.15 K, m1 = 0.02458): 0.2838 ± 0.0012 S/m
electrical conductivity (288.15 K, m1 = 0.02776): 0.3124 ± 0.0013 S/m
electrical conductivity (288.15 K, m1 = 0.03087): 0.3407 ± 0.0014 S/m
electrical conductivity (288.15 K, m1 = 0.0339): 0.3668 ± 0.0015 S/m
electrical conductivity (288.15 K, m1 = 0.03687): 0.3917 ± 0.0016 S/m
electrical conductivity (288.15 K, m1 = 0.03977): 0.4158 ± 0.0017 S/m
electrical conductivity (288.15 K, m1 = 0.0426): 0.4383 ± 0.0018 S/m
electrical conductivity (288.15 K, m1 = 0.04537): 0.4604 ± 0.0019 S/m
electrical conductivity (288.15 K, m1 = 0.04808): 0.4812 ± 0.002 S/m
electrical conductivity (288.15 K, m1 = 0.05073): 0.5011 ± 0.002 S/m
electrical conductivity (288.15 K, m1 = 0.05333): 0.521 ± 0.0021 S/m
electrical conductivity (288.15 K, m1 = 0.05587): 0.5391 ± 0.0022 S/m
electrical conductivity (288.15 K, m1 = 0.05835): 0.555 ± 0.0022 S/m
electrical conductivity (288.15 K, m1 = 0.06079): 0.5717 ± 0.0023 S/m
electrical conductivity (288.15 K, m1 = 0.06318): 0.5855 ± 0.0024 S/m
electrical conductivity (288.15 K, m1 = 0.06551): 0.6042 ± 0.0024 S/m
electrical conductivity (288.15 K, m1 = 0.0678): 0.6203 ± 0.0025 S/m
electrical conductivity (288.15 K, m1 = 0.07005): 0.6375 ± 0.0026 S/m
electrical conductivity (288.15 K, m1 = 0.07225): 0.653 ± 0.0027 S/m
electrical conductivity (288.15 K, m1 = 0.07441): 0.6677 ± 0.0027 S/m
electrical conductivity (288.15 K, m1 = 0.07652): 0.6826 ± 0.0028 S/m
electrical conductivity (288.15 K, m1 = 0.0786): 0.6955 ± 0.0028 S/m
electrical conductivity (288.15 K, m1 = 0.08064): 0.7092 ± 0.0029 S/m
electrical conductivity (288.15 K, m1 = 0.08264): 0.7199 ± 0.0029 S/m
electrical conductivity (288.15 K, m1 = 0.0846): 0.7323 ± 0.003 S/m
electrical conductivity (288.15 K, m1 = 0.08652): 0.7423 ± 0.003 S/m
electrical conductivity (288.15 K, m1 = 0.08841): 0.7524 ± 0.003 S/m
electrical conductivity (288.15 K, m1 = 0.09027): 0.7618 ± 0.0031 S/m
electrical conductivity (288.15 K, m1 = 0.09209): 0.7705 ± 0.0031 S/m
electrical conductivity (288.15 K, m1 = 0.09388): 0.7794 ± 0.0032 S/m
electrical conductivity (288.15 K, m1 = 0.09564): 0.7883 ± 0.0032 S/m
electrical conductivity (288.15 K, m1 = 0.09737): 0.7958 ± 0.0032 S/m
electrical conductivity (288.15 K, m1 = 0.09907): 0.8039 ± 0.0032 S/m
electrical conductivity (288.15 K, m1 = 0.1007): 0.812 ± 0.0033 S/m
electrical conductivity (288.15 K, m1 = 0.1024): 0.817 ± 0.0033 S/m
electrical conductivity (288.15 K, m1 = 0.104): 0.8214 ± 0.0033 S/m
electrical conductivity (288.15 K, m1 = 0.1056): 0.8271 ± 0.0033 S/m
electrical conductivity (288.15 K, m1 = 0.1071): 0.8323 ± 0.0034 S/m
electrical conductivity (288.15 K, m1 = 0.1087): 0.836 ± 0.0034 S/m
electrical conductivity (288.15 K, m1 = 0.1102): 0.8402 ± 0.0034 S/m
electrical conductivity (288.15 K, m1 = 0.1117): 0.8452 ± 0.0034 S/m
electrical conductivity (288.15 K, m1 = 0.1131): 0.8492 ± 0.0034 S/m
electrical conductivity (288.15 K, m1 = 0.1146): 0.8528 ± 0.0034 S/m
electrical conductivity (288.15 K, m1 = 0.116): 0.8565 ± 0.0035 S/m
electrical conductivity (293.15 K, m1 = 0.00416): 0.07018 ± 0.00031 S/m
electrical conductivity (293.15 K, m1 = 0.00821): 0.09599 ± 0.00044 S/m
electrical conductivity (293.15 K, m1 = 0.01215): 0.154 ± 0.00068 S/m
electrical conductivity (293.15 K, m1 = 0.01598): 0.2062 ± 0.00087 S/m
electrical conductivity (293.15 K, m1 = 0.01972): 0.2543 ± 0.0011 S/m
electrical conductivity (293.15 K, m1 = 0.02336): 0.2987 ± 0.0012 S/m
electrical conductivity (293.15 K, m1 = 0.02691): 0.3399 ± 0.0014 S/m
electrical conductivity (293.15 K, m1 = 0.03037): 0.3785 ± 0.0015 S/m
electrical conductivity (293.15 K, m1 = 0.03374): 0.415 ± 0.0017 S/m
electrical conductivity (293.15 K, m1 = 0.03704): 0.4499 ± 0.0018 S/m
electrical conductivity (293.15 K, m1 = 0.04025): 0.4818 ± 0.002 S/m
electrical conductivity (293.15 K, m1 = 0.04339): 0.5127 ± 0.0021 S/m
electrical conductivity (293.15 K, m1 = 0.04645): 0.5415 ± 0.0022 S/m
electrical conductivity (293.15 K, m1 = 0.04944): 0.5687 ± 0.0023 S/m
electrical conductivity (293.15 K, m1 = 0.05237): 0.5953 ± 0.0024 S/m
electrical conductivity (293.15 K, m1 = 0.05523): 0.6199 ± 0.0025 S/m
electrical conductivity (293.15 K, m1 = 0.05802): 0.6436 ± 0.0026 S/m
electrical conductivity (293.15 K, m1 = 0.06075): 0.6658 ± 0.0027 S/m
electrical conductivity (293.15 K, m1 = 0.06342): 0.6867 ± 0.0028 S/m
electrical conductivity (293.15 K, m1 = 0.06604): 0.707 ± 0.0029 S/m
electrical conductivity (293.15 K, m1 = 0.06859): 0.7264 ± 0.0029 S/m
electrical conductivity (293.15 K, m1 = 0.0711): 0.7446 ± 0.003 S/m
electrical conductivity (293.15 K, m1 = 0.07355): 0.762 ± 0.0031 S/m
electrical conductivity (293.15 K, m1 = 0.07595): 0.7782 ± 0.0031 S/m
electrical conductivity (293.15 K, m1 = 0.0783): 0.7934 ± 0.0032 S/m
electrical conductivity (293.15 K, m1 = 0.0806): 0.8076 ± 0.0033 S/m
electrical conductivity (293.15 K, m1 = 0.08285): 0.8213 ± 0.0033 S/m
electrical conductivity (293.15 K, m1 = 0.08507): 0.8335 ± 0.0034 S/m
electrical conductivity (293.15 K, m1 = 0.08723): 0.8458 ± 0.0034 S/m
electrical conductivity (293.15 K, m1 = 0.08936): 0.8569 ± 0.0035 S/m
electrical conductivity (293.15 K, m1 = 0.09144): 0.8677 ± 0.0035 S/m
electrical conductivity (293.15 K, m1 = 0.09348): 0.8777 ± 0.0035 S/m
electrical conductivity (293.15 K, m1 = 0.09549): 0.8873 ± 0.0036 S/m
electrical conductivity (293.15 K, m1 = 0.09745): 0.8958 ± 0.0036 S/m
electrical conductivity (293.15 K, m1 = 0.09938): 0.9045 ± 0.0037 S/m
electrical conductivity (293.15 K, m1 = 0.1013): 0.9127 ± 0.0037 S/m
electrical conductivity (293.15 K, m1 = 0.1031): 0.9206 ± 0.0037 S/m
electrical conductivity (293.15 K, m1 = 0.105): 0.9279 ± 0.0037 S/m
electrical conductivity (293.15 K, m1 = 0.1068): 0.9349 ± 0.0038 S/m
electrical conductivity (293.15 K, m1 = 0.1085): 0.9413 ± 0.0038 S/m
electrical conductivity (293.15 K, m1 = 0.1103): 0.9468 ± 0.0038 S/m
electrical conductivity (293.15 K, m1 = 0.1119): 0.9533 ± 0.0038 S/m
electrical conductivity (293.15 K, m1 = 0.1136): 0.9594 ± 0.0039 S/m
electrical conductivity (293.15 K, m1 = 0.1153): 0.9653 ± 0.0039 S/m
electrical conductivity (293.15 K, m1 = 0.1169): 0.9709 ± 0.0039 S/m
electrical conductivity (293.15 K, m1 = 0.1185): 0.9766 ± 0.0039 S/m
electrical conductivity (293.15 K, m1 = 0.12): 0.9819 ± 0.004 S/m
electrical conductivity (293.15 K, m1 = 0.1216): 0.9868 ± 0.004 S/m
electrical conductivity (293.15 K, m1 = 0.1231): 0.9919 ± 0.004 S/m

Reference: the NIST ThermoML archive (doi:10.1021/je500804j)
